Measurements from ChEMBL document CHEMBL4680273, “Teixobactin: A Paving Stone toward a New Class of Antibiotics?” (2020).
≈ marks a conversion by molar mass, not a printed value.

Experiments:
Type in all cases: functional
[1] = tested on: Staphylococcus aureus; test: Antibacterial activity against Staphylococcus aureus ATCC 29213 incubated for 16 hrs by two-fold serial dilution method
[2] = tested on: Bacillus subtilis; test: Antibacterial activity against Bacillus subtilis ATCC 6051 incubated for 16 hrs by two-fold serial dilution method
[3] = tested on: Staphylococcus epidermidis; test: Antibacterial activity against Staphylococcus epidermidis ATCC 14990 incubated for 16 hrs by two-fold serial dilution method
[4] = tested on: Streptococcus salivarius; test: Antibacterial activity against Streptococcus salivarius ATCC 13419 incubated for 16 hrs by two-fold serial dilution method
[5] = tested on: Enterococcus durans; test: Antibacterial activity against Enterococcus durans ATCC 6056 incubated for 16 hrs by two-fold serial dilution method
[6] = tested on: Staphylococcus aureus; test: Antibacterial activity against methicillin resistant Staphylococcus aureus ATCC 33591 infected in iv dosed CD1 mouse model of septicemia assessed as protection against lethal infection administered as single dose starting from 1 hr post infection and measured 48 hrs post infection relative to control; settings: ATCC 33591, iv, time 47 hrs, read-out: PD50

MIC [1] [µg/mL] | MIC [2] [µg/mL] | MIC [3] [µg/mL] | MIC [4] [µg/mL] | MIC [5] [µg/mL] | SMILES | ED50 [6] [mg/kg]
8 (≈ 4.34 µM) | 4 (≈ 2.17 µM) | 8 (≈ 4.34 µM) | 4 (≈ 2.17 µM) | 8 (≈ 4.34 µM) | CC[C@H](C)[C@H](NC(=O)[C@@H](Cc1ccccc1)NC)C(=O)N[C@@H](CO)C(=O)N[C@H](CCC(N)=O)C(=O)N[C@@H](C(=O)N[C@H](C(=O)N[C@@H](CO)C(=O)N[C@H]1C(=O)N[C@@H](CCCCNS(=O)(=O)c2ccc(-c3c4ccc(=[N+](CC)CC)cc-4oc4cc(N(CC)CC)ccc34)c(S(=O)(=O)[O-])c2)C(=O)N[C@@H](CCCNC(=N)N)C(=O)N[C@@H]([C@@H](C)CC)C(=O)O[C@H]1C)[C@@H](C)CC)[C@@H](C)CC | 
 |  |  |  |  | CN[C@H](CC(C)C)C(=O)N[C@H]1C(=O)N[C@@H](CC(N)=O)C(=O)N[C@H]2C(=O)N[C@H]3C(=O)N[C@H](C(=O)N[C@H](C(=O)O)c4cc(O)cc(O)c4-c4cc3ccc4O)[C@H](O)c3ccc(c(Cl)c3)Oc3cc2cc(c3O[C@@H]2O[C@H](CO)[C@@H](O)[C@H](O)[C@H]2O[C@H]2C[C@](C)(N)[C@H](O)[C@H](C)O2)Oc2ccc(cc2Cl)[C@H]1O [VANCOMYCIN] | 2.75
